For assay [1], the target named is T1, transglutaminase 2 (TGase 2) (Homo sapiens, UniProt P21980).
T1 sequence (P21980 1-687): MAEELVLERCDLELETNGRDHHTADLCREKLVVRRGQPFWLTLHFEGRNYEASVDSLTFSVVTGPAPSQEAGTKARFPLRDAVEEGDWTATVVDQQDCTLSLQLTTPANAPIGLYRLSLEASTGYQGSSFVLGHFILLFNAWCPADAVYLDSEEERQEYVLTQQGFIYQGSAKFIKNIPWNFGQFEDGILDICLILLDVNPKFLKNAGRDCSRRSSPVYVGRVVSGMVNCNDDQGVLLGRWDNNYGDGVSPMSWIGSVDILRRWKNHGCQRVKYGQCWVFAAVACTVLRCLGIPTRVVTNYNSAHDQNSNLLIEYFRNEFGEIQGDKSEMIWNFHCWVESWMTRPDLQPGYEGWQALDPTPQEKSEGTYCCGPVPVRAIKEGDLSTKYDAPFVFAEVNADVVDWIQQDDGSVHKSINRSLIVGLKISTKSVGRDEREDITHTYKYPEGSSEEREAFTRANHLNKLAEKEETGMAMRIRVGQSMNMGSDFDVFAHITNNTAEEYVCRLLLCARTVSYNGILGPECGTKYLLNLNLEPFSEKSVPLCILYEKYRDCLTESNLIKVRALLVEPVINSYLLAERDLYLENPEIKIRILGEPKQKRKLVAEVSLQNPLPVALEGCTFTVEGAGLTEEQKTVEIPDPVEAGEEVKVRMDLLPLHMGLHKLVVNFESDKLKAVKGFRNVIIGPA
Put plainly: TGase 2 transpeptidase fluorescence assay: incorporation of KXD into N,N-dimethylated-casein (Std and FPC formats). The format is biochemical. To be noted: for TGase 2 inhibitory activity, SAR comment in words (relative to parent compound): qualitative comparison. The method, then:
Transpeptidase activity was monitored as the increase in fluorescence intensity (FI) that accompanies incorporation of the dansylated Lys derivative, α-N-Boc-Lys-CH2-CH2-dansyl (KXD), into the protein substrate, N,N-dimethylated-casein (NMC).
Therefore, a method was used in which full progress curves (FPC) were recorded for the TGase-catalyzed reaction of KXD with NMC in the presence of inhibitor (Table 1-4). Reactions were initiated by enzyme addition to a solution of substrate and inhibitor. […] From such progress curves, IC50 values were calculated using the following equation: IC50=[I]/{(vc/vss)−1}. Progress curves recorded at several inhibitor concentrations were used to determine FPC IC50 values (Table 1-4).

Assay [2] deals with T1, transglutaminase 2 (TGase 2). The assay is described as above. To be noted: standard format (Std): reactions terminated after 60 min, FI recorded, four-parameter fit. The format is biochemical.
The mark [3] stands for this setting: full progress curves (FPC), IC50=[I]/{(vc/vss)−1}, from steady-state velocity, read-out: IC50 (μM, FPC).
Where [4] appears, read: summary of FPC values, read-out: FPC IC50 values.

Where a name gives a salt, the structure may show the parent alone. Read-outs that look alike come from different tables or passages of the source. Where only a bound is given, the exact number is not on record here.

Regarding `NNC(=O)CSc1nc2scc(-c3ccccc3)c2c(=O)n1-c1ccccc1` [986-01, (4-Oxo-3,5-diphenyl-3,4-dihydro-thieno[2,3-d]pyrimidin-2-ylsulfanyl)acetic acid hydrazide], the IC50 (as a rule, the concentration that gives 50% inhibition) was determined as 0.25 µM in assay [1] (setting [3]) and 0.8 µM in assay [2].

Take `NNC(=O)CSc1nc2ccccc2c(=O)n1-c1ccccc1` [986-03, (4-Oxo-3-phenyl-3,4-dihydroquinazolin-2-ylsulfanyl)acetic acid hydrazide]: the “TGase 2 inhibitory activity, SAR comment in words (relative to parent compound)” value in assay [1] is reported as “decreased activity”. For the same compound, the IC50 in assay [2] was 18 µM.

As to `NNC(=O)CSc1nc2scc(-c3ccccc3)c2c(=O)n1-c1ccc(F)cc1` [986-07, [3-(4-Fluorophenyl)-4-oxo-5-phenyl-3,4-dihydrothieno[2,3-d]pyrimidin-2-ylsulfanyl]acetic acid hydrazide], the IC50 in assay [1] (setting [3]) is 0.32 µM; in assay [2], 1.3 µM.

Turning to `NNC(=O)CSc1nc2scc(-c3ccc(F)cc3)c2c(=O)n1-c1ccccc1` [986-08, [5-(4-Fluorophenyl)-4-oxo-3-phenyl-3,4-dihydrothieno[2,3-d]pyrimidin-2-ylsulfanyl]acetic acid hydrazide], the concentration for half-maximal inhibition (IC50) was 0.29 µM in assay [1] (setting [3]) and 0.8 µM in assay [2].

With `NNC(=O)CSc1nc2scc(-c3ccc(F)cc3)c2c(=O)n1-c1ccc(F)cc1` [986-09, [3,5-Bis-(4-fluorophenyl)-4-oxo-3,4-dihydrothieno[2,3-d]pyrimidin-2-ylsulfanyl]acetic acid hydrazide], the half-maximal inhibitory concentration (IC50) in assay [1] (setting [3]) came out at 0.67 µM; in assay [2], 1.5 µM.

For the compound `Cc1sc2nc(SCC(=O)NN)n(-c3ccccc3)c(=O)c2c1-c1ccccc1` [986-13, (6-Methyl-4-oxo-3,5-diphenyl-3,4-dihydrothieno[2,3-d]pyrimidin-2-ylsulfanyl)acetic acid hydrazide], the figures for the IC50 in assay [1] (setting [3]), in assay [1] (setting [4]) and in assay [2] were 0.16 µM, less than 0.16 µM and 1.5 µM, respectively. For the same compound, in assay [1], the “TGase 2 inhibitory activity, SAR comment in words (relative to parent compound)” value is reported as “increased activity”.

As for `NNC(=O)CSc1nc2scc(-c3ccccc3)c2c(=O)n1-c1ccccc1F` [986-18, [3-(2-Fluorophenyl)-4-oxo-5-phenyl-3,4-dihydrothieno[2,3-d]pyrimidin-2-ylsulfanyl]acetic acid hydrazide], the IC50 was found to be 0.16 µM in assay [1] (setting [3]) and 0.5 µM in assay [2].

For the compound `NNC(=O)CSc1nc2scc(-c3ccccc3)c2c(=O)n1-c1cccc(F)c1` [986-19, [3-(3-Fluorophenyl)-4-oxo-5-phenyl-3,4-dihydrothieno[2,3-d]pyrimidin-2-ylsulfanyl]acetic acid hydrazide], the figures for the IC50 in assay [1] (setting [3]), in assay [1] (setting [4]) and in assay [2] were 0.18 µM, less than 0.16 µM and 0.25 µM, respectively.

Regarding `COc1cccc(-n2c(SCC(=O)NN)nc3scc(-c4ccccc4)c3c2=O)c1` [986-21, [3-(3-Methoxyphenyl)-4-oxo-5-phenyl-3,4-dihydrothieno[2,3-d]pyrimidin-2-ylsulfanyl]acetic acid hydrazide], the IC50 in assay [1] (setting [3]) was 0.47 µM; in assay [2] it was 0.82 µM.

Turning to `Cc1sc2nc(SCCC(=O)NN)n(-c3ccccc3)c(=O)c2c1-c1ccccc1` [986-22, 3-(6-Methyl-4-oxo-3,5-diphenyl-3,4-dihydrothieno[2,3-d]pyrimidin-2-ylsulfanyl)propionic acid hydrazide], the “TGase 2 inhibitory activity, SAR comment in words (relative to parent compound)” value in assay [1] is reported as “diminished activity”. In addition, half-maximal inhibition in assay [2] (IC50) required 1.3 µM.

For `NNC(=O)CSc1nc2scc(-c3ccccc3)c2c(=O)n1-c1cc(F)ccc1F` [986-26, [3-(2,5-Difluorophenyl)-4-oxo-5-phenyl-3,4-dihydrothieno[2,3-d]pyrimidin-2-ylsulfanyl]acetic acid hydrazide], the IC50 in assay [1] (setting [3]) came out at 0.23 µM; in assay [2] it was 0.59 µM.

Consider `NNC(=O)CSc1nc2scc(-c3ccccc3)c2c(=O)n1-c1cc(F)cc(F)c1` [986-27, [3-(3,5-Difluorophenyl)-4-oxo-5-phenyl-3,4-dihydrothieno[2,3-d]pyrimidin-2-ylsulfanyl]acetic acid hydrazide], for which the IC50 in assay [1] (setting [3]) is 0.22 µM; in assay [2] it was 0.48 µM.

With `NNC(=O)CSc1nc2sc(-c3ccccc3)cc2c(=O)n1-c1ccccc1` [986-29, (4-Oxo-3,6-diphenyl-3,4-dihydrothieno[2,3-d]pyrimidin-2-ylsulfanyl)acetic acid hydrazide], in assay [1], the “TGase 2 inhibitory activity, SAR comment in words (relative to parent compound)” value is on record as “loss of inhibitory activity”. In addition, in assay [2], the IC50 was more than 20 µM.

For `NNC(=O)COc1nc2scc(-c3ccccc3)c2c(=O)n1-c1ccccc1` [986-30, (4-Oxo-3,5-diphenyl-3,4-dihydrothieno[2,3-d]pyrimidin-2-yloxy)acetic acid hydrazide], in assay [1], the “TGase 2 inhibitory activity, SAR comment in words (relative to parent compound)” value is “decreased activity”. Also, it took 4.5 µM to reach half-maximal inhibition in assay [2] (IC50).

Compound `CCCN1CCc2c(sc3nc(SCC(=O)NN)n(-c4cccc(F)c4)c(=O)c23)C1` [986-49, [3-(3-Fluorophenyl)-4-oxo-7-propyl-3,4,5,6,7,8-hexahydro-9-thia-1,3,7-triazafluoren-2-ylsulfanyl]acetic acid hydrazide] returned an IC50 in assay [2] of 6 µM.

For `CN(N)C(=O)CSc1nc2scc(-c3ccc(F)cc3)c2c(=O)n1-c1ccc(F)cc1` [986-50, [3,5-Bis-(4-fluorophenyl)-4-oxo-3,4-dihydrothieno[2,3-d]pyrimidin-2-ylsulfanyl]acetic acid N-methylhydrazide], the IC50 in assay [2] is more than 20 µM.

In turn, `CNNC(=O)CSc1nc2scc(-c3ccc(F)cc3)c2c(=O)n1-c1ccc(F)cc1` [986-51, [3,5-Bis-(4-fluorophenyl)-4-oxo-3,4-dihydrothieno[2,3-d]pyrimidin-2-ylsulfanyl]acetic acid N′-methylhydrazide] registered an IC50 in assay [2] of more than 20 µM.

Compound `CNC(=O)CSc1nc2scc(-c3ccc(F)cc3)c2c(=O)n1-c1ccc(F)cc1` [986-52, 2-[3,5-Bis-(4-fluorophenyl)-4-oxo-3,4-dihydrothieno[2,3-d]pyrimidin-2-ylsulfanyl]-N-methylacetamide] had an IC50 in assay [2] of more than 20 µM.

The compound `NC(=O)CSc1nc2scc(-c3ccccc3F)c2c(=O)n1-c1cccc(F)c1` [986-53, 2-[3-(3-Fluorophenyl)-5-(2-fluorophenyl)-4-oxo-3,4-dihydrothieno[2,3-d]pyrimidin-2-ylsulfanyl]acetamide] showed an IC50 in assay [2] of more than 10 µM.

In assay [2], `O=C(O)CSc1nc2scc(-c3ccc(F)cc3)c2c(=O)n1-c1ccc(F)cc1` [986-54, [3,5-Bis-(4-fluorophenyl)-4-oxo-3,4-dihydrothieno[2,3-d]pyrimidin-2-ylsulfanyl]acetic acid] displayed an IC50 of more than 20 µM.

In the case of `O=C(CSc1nc2scc(-c3ccc(F)cc3)c2c(=O)n1-c1ccc(F)cc1)NO` [986-55, 2-[3,5-Bis-(4-fluorophenyl)-4-oxo-3,4-dihydrothieno[2,3-d]pyrimidin-2-ylsulfanyl]-N-hydroxyacetamide], the IC50 in assay [2] was more than 20 µM.

`NCC(=O)CSc1nc2scc(-c3ccccc3)c2c(=O)n1-c1cccc(F)c1` [986-56, 2-(3-Amino-2-oxo-propylsulfanyl)-3-(3-fluorophenyl)-5-phenyl-3H-thieno[2,3-d]pyrimidin-4-one hydrochloride]: in assay [2], the IC50 came to 5.3 µM.

As for `CCOC(=O)CSc1nc2scc(-c3ccccc3)c2c(=O)n1-c1ccc(F)cc1` [986-58, [3-(4-Fluorophenyl)-4-oxo-5-phenyl-3,4-dihydrothieno[2,3-d]pyrimidin-2-ylsulfanyl]acetic acid ethyl ester], in assay [2], the IC50 is more than 20 µM.

These data come from patent publication US20060183759A1, “Tissue transglutaminase inhibitors” (priority 2004, published 2006).
